Measurements published in patent publication US12564585B2, “Nutraceuticals having sustained release for improved bioavailability and method of production” (BioActives LLC, priority 2013, dated 2026).
Values belong to the compound of their own block, whether it stands above or below them.

Tests used:
[1] = Curcumin-SR bioavailability pilot human uptake study; type: in vivo; conditions: plasma Curcumin, 250 mg total Curcuminoids oral, 0-9 hr
Procedure: (§1) Curcumin-SR formulation and Curcumin powder equivalent to 250 mg total Curcuminoids were used for the study. The samples were provided in hard gelatin capsules. The crossover study was done using two healthy subjects who were not using curcumin in their food preparations or consuming Curcumin supplements. On the day of the study, 7 ml of blood was collected in EDTA tubes to permit establishment of baseline value. Curcumin-SR capsules were administered after breakfast and blood samples were drawn as before at 1, 2, 4, 7, and 9 hrs post-dose. The samples were stored on ice protected from light and the plasma was separated by centrifugation within 1 hr of collection and stored at −70° C. until analysis. After a 7-day washout period the protocol was repeated for the control Curcumin powder capsules.
Hydrolysis of Curcumin conjugates and extraction of Curcumin from the plasma were done based on the method described by Vareed et at. (Pharamcokinetics of curcumin conjugate metabolites in healthy human subjects, Cancer Epidemiol Biomarkers, 17: 1411-1417, 2008). One ml of the plasma was incubated with 2000 units of β-glucuronidase and 260 units sulfatase at 37° C. for 3.5 hrs. The samples were extracted three times with ethyl acetate/methanol (95:5) and the solvents were evaporated under nitrogen protected from light. […] Curcumin was quantified using reverse-phase HPLC as described above.

[2] = Curcumin-SR dissolution test (SGF then SIF); type: physicochemical; conditions: simulated gastric and intestinal fluids
Procedure: The in vitro dissolution study was performed using the Varian 7020 dissolution tester with the basket configuration at 37° C., 100 rpm. The samples equivalent to 25 mg Curcumin filled in hard gelatin capsules were used for the study. The capsules were introduced into 750 ml of 0.1N HCl (simulated gastric fluid without enzymes, SGF) maintained at 37° C. At the end of 1 and 2 hrs, 3 ml of the sample was withdrawn and filtered through 10μ-syringe filter. The removed volume was replaced each time with fresh medium. At the end of 2 hr, the pH of the medium was adjusted to 6.5 (simulated intestinal fluid without enzymes, SIF) with 195 ml of 0.2M tribasic sodium phosphate solution equilibrated to 37° C. Polysorbate 80 dissolved in 55 ml of water was added to a concentration of 0.25% to simulate intestinal fluid. Aliquots were withdrawn at 4, 6, 9, and 12 hrs for analysis, as described before, and the removed volume was replaced with fresh medium each time. The aliquots were diluted with methanol for the HPLC analysis of Curcumin. Curcumin was quantified using reverse-phase HPLC on a Phenomenex Luna column (150×4.6 mm, 5 μm) at room temperature. The samples were eluted using an isocratic mobile phase consisting of 5% acetic acid/45% and acetronitrile/55%. The flow rate was 1 ml/min and detection wavelength was 420 nm. Standard Curcumin from Chromadex was used for quantification. […]

[3] = Resveratrol-SR bioavailability pilot human uptake study; type: in vivo; conditions: plasma free Resveratrol, 500 mg oral, 0-24 hr
Procedure: Resveratrol-SR formulation and 98% Resveratrol powder equivalent to 500 mg Resveratrol were used for the study. The samples were provided in hard gelatin capsules. The crossover study was done using two healthy subjects who were not consuming Resveratrol supplements. The subjects were asked not to consume Resveratrol containing foods, such as, peanuts grapes and wine, for 48 hours before the study. On the day of the study, 7 ml of blood was collected in EDTA tubes to permit establishment of baseline value. Resveratrol-SR capsules were administered after breakfast and blood samples were drawn as before at 1, 2, 4, 7, 9, and 24 his post-dose. The samples were stored on ice protected from light and the plasma was separated by centrifugation within 1 hr of collection and stored at −70° C. until analysis. After a 7-day washout period the protocol was repeated for the control Resveratrol powder capsules. Plasma total Resveratrol (Resveratrol conjugates and free Resveratrol) and free Resveratrol were determined based on the method described by Meng et al. (Urinary and plasma levels of resveratrol and quercetin in humans, mice and rats after ingestion of pure compounds and grape juice, J. Agric. Food Chem., 52: 935-942, 2004). […] Resveratrol was quantified using reverse-phase HPLC as described above.

[4] = Resveratrol-SR dissolution test (SGF then SIF); type: physicochemical; conditions: sink conditions, SGF 2 hr then SIF pH 6.5, 25 mg Resveratrol
Procedure: The in vitro dissolution study was performed using the Varian 7020 dissolution tester with the basket configuration at 37° C., 100 rpm. The samples equivalent to 25 mg Resveratrol filled in hard gelatin capsules were used for the study. The capsules were introduced into 750 ml of 0.1N HCl (simulated gastric fluid without enzymes, SGF) maintained at 37° C. […] The removed volume was replaced each time with fresh medium. […] Polysorbate 80 dissolved in 55 ml of water was added to a concentration of 0.25% to simulate intestinal fluid. Aliquots were withdrawn at 4, 6, 9, and 12 hrs for analysis as described before and the removed volume was replaced with fresh medium each time. The aliquots were diluted with methanol for HPLC analysis. Resveratrol was quantified using reverse-phase HPLC on a Phenomenex Prodigy column (250×4.6 mm, 5 μm) at room temperature. The samples were eluted using an isocratic mobile phase consisting of 5% acetic acid/55% and methaniol/45%. The flow rate was 1 ml/min and detection wavelength was 306 nm. The retention time for Resveratrol was 7.5 min under these conditions. Standard Resveratrol from Sigma was used for calibration.

[5] = human studies, background; cited from earlier work
[6] = PQQ-SR dissolution test (SGF then SIF); type: physicochemical; conditions: SGF 2 hr then SIF pH 6.5, 20 mg PQQ
Procedure: The in vitro dissolution study was performed using the Varian 7020 dissolution tester with the basket configuration at 37° C., 100 rpm. The samples equivalent to 20 mg PQQ filled in hard gelatin capsules were used for the study. The capsules were introduced into 750 ml of 0.1N HCl (simulated gastric fluid without enzymes, SGF) maintained at 37° C. At the end of 1 and 2 hrs, 2 ml of the sample was withdrawn and filtered through 10μ-syringe filter. The removed volume was replaced each time with fresh medium. PQQ was determined by spectrophotometry at 330 nm.
At the end of 2 hr, the pH of the medium was adjusted to 6.5 (Simulated intestinal fluid without enzymes, SIF) with an appropriate amount of 0.2M tribasic sodium phosphate solution equilibrated to 37° C., Polysorbate 80 at 0.25% (simulating fed state) dissolved in water was added to the medium. Aliquots were withdrawn at 4, 6, 9, and 12 hrs for analysis as described before and the removed volume was replaced with fresh medium each time.

[7] = PQQ-SR bioavailability pilot human uptake study; type: in vivo; conditions: free plasma PQQ
Procedure: as §1, with “PQQ-SR” for “Curcumin-SR”, “PQQ” for “Curcumin”, “40” for “250”, “PQQ” for “total Curcuminoids”, “subjects.” for “subjects who were not using curcumin in their food preparations or consuming Curcumin supplements.”
Plasma PQQ was extracted using n-butanol and HCl followed by SepPak C-18 clean up of the extract as described by Suzuki et al. (Extractions of pyrroloquinoline quinone from crude biological samples, Suzuki, O., et al., Life Sci., 47: 2135-41, 1990). PQQ was estimated by using the enzymatic method as described by Geiger and Gorisch (Enzymatic determination of pyrroloquinoline quinone using crude membranes from E. coli, Geiger, O. and Gorisch, H., Anal Biochem., 164: 418-23, 1987). The method measures only the free PQQ in the plasma.

average area under the curve AUC0-9hr [1]: 47.78 ng·h/mL
Structure (SMILES): COc1cc(/C=C/C(=O)CC(=O)/C=C/c2ccc(O)c(OC)c2)ccc1O [Curcumin powder, Curcumin]
dissolution profile in words [2]: very little is micronized or released at the gastric pH

average area under the curve AUC0-24hr for free Resveratrol [3]: 2290 ng·h/mL
dissolution of dose in 4 hours [4]: 100%
Structure (SMILES): Oc1ccc(/C=C/c2cc(O)cc(O)c2)cc1 [Resveratrol powder, 3,4′,5-trihydroxy-trans-stilbene]

dose in solution by 4 hrs [6]: 100%
time by which plasma level reached near baseline [7]: ≤ 9 h
average area under the curve AUC0-9hr ([7]; 40 mg oral, 0-9 hr): 31.41 ng·h/mL
Tmax ([7]; human, 40 mg PQQ oral, two healthy subjects): 2 h
Structure (SMILES): O=C(O)c1cc(C(=O)O)c2c(n1)C(=O)C(=O)c1cc(C(=O)O)[nH]c1-2 [control PQQ powder, Pyrroloquinoline quinone]
time after ingestion at which maximum plasma level was reached [5]: 2 h
time by which levels reached baseline [5]: ≤ 8 h
